Measurements published in ChEMBL document CHEMBL1141060, “A new synthesis of isoaurones: cytotoxic activity of compounds related to the alleged structure of isoaurostatin” (Bioorg Med Chem Lett, 2005).

System: NCI-H460
Assay: Cytotoxic activity against human non-small lung carcinoma cell line H460
Type: functional, cell-based

Row | Structure (SMILES) | IC50 [µM]
1 | COc1ccc(/C=C2/C(=O)Oc3ccccc32)cc1 | > 39
2 | COc1cc(OC)c2c(c1)OC(=O)/C2=C/c1ccc(OC)c(O)c1 | 8.8
3 | COc1cc(/C=C2/C(=O)Oc3ccccc32)cc(OC)c1OC | 37.7
4 | CC(=O)Oc1ccc(/C=C2/C(=O)Oc3ccc(OC(C)=O)cc32)cc1 | > 50
5 | O=C1Oc2ccccc2/C1=C\c1ccc(OC(=O)c2ccccc2)cc1 | > 30
6 | O=C1Oc2ccccc2/C1=C\c1ccc(O)cc1 | 10.1
7 | COc1ccc(/C=C2/C(=O)Oc3ccccc32)cc1O | 9.3
